This note sets out measurements from patent US20210024545A1, “SUBSTITUTED DIAZAHETERO-BICYCLIC COMPOUNDS AND THEIR USE” (Bayer Aktiengesellschaft, priority 2016, published 2021).

In experiment [1] the target is human TASK-1 (Homo sapiens, UniProt O14649). The experiment can be described thus: Inhibition of recombinant TASK-1 in stably transfected CHO cells, KCl-induced depolarization, voltage-sensitive dye (B-2). It is filed as cell-based. Details: expressed in transfected cells; host or cells: stably transfected CHO cells. To be noted: depolarization induced by 40 mM potassium chloride, some mean values from multiple determinations. On the procedure: (§1) B-2. Inhibition of Recombinant TASK-1 and TASK-3 In Vitro
(§2) The investigations on the inhibition of the recombinant TASK-1 and TASK-3 channels were conducted using stably transfected CHO cells. The compounds of the invention were tested here with administration of 40 mM of potassium chloride in the presence of a voltage-sensitive dye using the method described in detail in the following references [Whiteaker et al., Validation of FLIPR membrane potential dye for high-throughput screening of potassium channel modulators, J. Biomol. Screen. 6 (5), 305-312 (2001); Molecular Devices FLIPR Application Note: Measuring membrane potential using the FLIPR® membrane potential assay kit on Fluorometric Imaging Plate Reader (FLIPR®) systems, http://www.moleculardevices.com/reagents-supplies/assay-kits/ion-channels/flipr-membrane-potential-assay-kits]. The activity of the test substances was determined as their ability to inhibit a depolarization induced in the recombinant cells by 40 mM potassium chloride. The concentration which can block half of this depolarization is referred to as IC50).
(§3) Table 2 below lists the IC50 values from this assay determined for individual working examples of the invention (some as mean values from multiple independent individual determinations): […]

The target in experiment [2] is human TASK-3 (Homo sapiens, UniProt Q9NPC2). The experiment can be described thus: Inhibition of recombinant TASK-3 in stably transfected CHO cells, KCl-induced depolarization, voltage-sensitive dye (B-2). Type of experiment: cell-based. On the set-up: expressed in transfected cells; host or cells: stably transfected CHO cells. To be noted: depolarization induced by 40 mM potassium chloride, some mean values from multiple determinations. On the procedure: as §1, §2, §3
human TASK-3, sequence (Q9NPC2 whole entry): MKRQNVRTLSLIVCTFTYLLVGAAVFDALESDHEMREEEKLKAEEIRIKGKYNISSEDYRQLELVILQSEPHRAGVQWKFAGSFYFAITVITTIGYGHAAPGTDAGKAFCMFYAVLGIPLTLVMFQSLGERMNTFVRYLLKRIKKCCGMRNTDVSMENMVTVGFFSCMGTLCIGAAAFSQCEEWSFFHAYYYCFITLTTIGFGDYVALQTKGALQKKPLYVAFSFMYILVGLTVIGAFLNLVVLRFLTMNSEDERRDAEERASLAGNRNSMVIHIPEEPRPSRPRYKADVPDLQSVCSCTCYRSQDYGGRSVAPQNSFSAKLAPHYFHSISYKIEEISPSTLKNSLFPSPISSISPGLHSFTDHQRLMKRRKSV

human TASK-1, sequence (O14649 whole entry): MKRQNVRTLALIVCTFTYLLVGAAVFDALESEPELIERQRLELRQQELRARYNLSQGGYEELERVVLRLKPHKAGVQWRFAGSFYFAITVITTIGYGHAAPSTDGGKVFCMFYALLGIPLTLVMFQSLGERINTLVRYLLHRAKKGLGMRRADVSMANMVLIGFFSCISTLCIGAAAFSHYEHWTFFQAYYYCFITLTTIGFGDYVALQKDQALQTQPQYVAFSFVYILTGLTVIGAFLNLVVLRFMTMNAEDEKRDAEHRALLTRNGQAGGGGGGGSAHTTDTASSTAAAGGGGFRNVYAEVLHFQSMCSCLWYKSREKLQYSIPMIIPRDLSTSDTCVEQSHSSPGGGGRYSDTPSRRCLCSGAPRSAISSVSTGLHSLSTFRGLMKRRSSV

As for `COc1cccc(C(=O)N2CC3CCC2CN3Cc2c(-c3ccc(Br)cc3)nc3ccccn23)n1` (racemic) [Example 151, (5-{[2-(4-Bromophenyl)imidazo[1,2-a]pyridin-3-yl]methyl}-2,5-diazabicyclo[2.2.2]oct-2-yl)(6-methoxypyridin-2-yl)methanone], the IC50 (as a rule, the midpoint of a concentration-inhibition curve) in experiment [1] was 72 nM; in experiment [2], 1.8 nM.

As for `O=C(c1ccccc1F)N1CC2CCC1CN2Cc1c(-c2ccc(Br)cc2)nc2ccccn12` (racemic) [Example 152, (5-{[2-(4-Bromophenyl)imidazo[1,2-a]pyridin-3-yl]methyl}-2,5-diazabicyclo[2.2.2]oct-2-yl)(2-fluorophenyl)methanone], the results for the half-inhibitory concentration (IC50) in experiment [1] and in experiment [2] were 2900 nM and 75 nM, respectively.

`COc1ccc(F)c(C(=O)N2CC3CCC2CN3Cc2c(-c3ccc(Br)cc3)nc3ccccn23)n1` (racemic) [Example 153, (5-{[2-(4-Bromophenyl)imidazo[1,2-a]pyridin-3-yl]methyl}-2,5-diazabicyclo[2.2.2]oct-2-yl)(3-fluoro-6-methoxypyridin-2-yl)methanone]: the IC50 in experiment [1] stood at 1000 nM; in experiment [2] it was 34 nM.

As to `COc1ccc(Cl)c(C(=O)N2CC3CCC2CN3Cc2c(-c3ccc(Br)cc3)nc3ccccn23)n1` (racemic) [Example 199, (5-{[2-(4-Bromophenyl)imidazo[1,2-a]pyridin-3-yl]methyl}-2,5-diazabicyclo[2.2.2]oct-2-yl)(3-chlor-6-methoxypyridin-2-yl)methanone(racemate)], the IC50 in experiment [1] is 33 nM; in experiment [2], 1.8 nM.

For `CC(C)(C)OC(=O)N1CC2CCC1CN2Cc1c(-c2ccc(Cl)cc2)nc2ccccn12` (single isomer, unassigned) [Example 15, tert-Butyl 5-{[2-(4-chlorophenyl)imidazo[1,2-a]pyridin-3-yl]methyl}-2,5-diazabicyclo[2.2.2]octane-2-carboxylate], the IC50 in experiment [1] was 397 nM; in experiment [2], 82 nM.

On to `CC(C)(C)OC(=O)N1CC2CCC1CN2Cc1c(-c2ccc(Cl)cc2)nc2ccccn12` (single isomer, unassigned) [Example 16, tert-Butyl 5-{[2-(4-chlorophenyl)imidazo[1,2-a]pyridin-3-yl]methyl}-2,5-diazabicyclo[2.2.2]octane-2-carboxylate], for which the half-inhibitory concentration (IC50) in experiment [1] turned out to be 1300 nM; in experiment [2] it was 600 nM.

As to `O=C(c1ccccc1F)N1CC2CCC1CN2Cc1c(-c2ccc(Cl)cc2)nc2ccccn12` (single isomer, unassigned) [Example 35], the IC50 was 350 nM in experiment [1] and 200 nM in experiment [2].

Regarding `O=C(c1ccccc1F)N1CC2CCC1CN2Cc1c(-c2ccc(Cl)cc2)nc2ccccn12` (single isomer, unassigned) [Example 36], the IC50 in experiment [1] came out at 670 nM; in experiment [2], 250 nM.

Take `O=C(C1CCCC1)N1CC2CCC1CN2Cc1c(-c2ccc(Cl)cc2)nc2ccccn12` (single isomer, unassigned) [Example 37]: the concentration for half-maximal inhibition (IC50) is 350 nM in experiment [1] and 63 nM in experiment [2].

Turning to `O=C(C1CCCC1)N1CC2CCC1CN2Cc1c(-c2ccc(Cl)cc2)nc2ccccn12` (single isomer, unassigned) [Example 38], the values for the concentration for half-maximal inhibition (IC50) in experiment [1] and in experiment [2] were 790 nM and 380 nM, respectively.

Consider `COc1cccc(C(=O)N2CC3CCC2CN3Cc2c(-c3ccc(Cl)cc3)nc3ccccn23)c1` (single isomer, unassigned) [Example 39], for which the results for the half-inhibitory concentration (IC50) in experiment [1] and in experiment [2] were 640 nM and 370 nM, respectively.

For `COc1cccc(C(=O)N2CC3CCC2CN3Cc2c(-c3ccc(Cl)cc3)nc3ccccn23)c1` (single isomer, unassigned) [Example 40], the half-maximal inhibitory concentration (IC50) in experiment [1] came out at 533 nM; in experiment [2], 104 nM.

With `O=C(c1cc(F)ccc1Cl)N1CC2CCC1CN2Cc1c(-c2ccc(Cl)cc2)nc2ccccn12` (single isomer, unassigned) [Example 41], the concentration for half-maximal inhibition (IC50) in experiment [1] was 76 nM; in experiment [2], 3.9 nM.

Turning to `O=C(C1CCCCC1)N1CC2CCC1CN2Cc1c(-c2ccc(Cl)cc2)nc2ccccn12` (single isomer, unassigned) [Example 42], the concentration for half-maximal inhibition (IC50) in experiment [1] came out at 880 nM; in experiment [2], 17 nM.

As to `O=C(C1CCC1)N1CC2CCC1CN2Cc1c(-c2ccc(Cl)cc2)nc2ccccn12` (single isomer, unassigned) [Example 43], the results for the IC50 in experiment [1] and in experiment [2] were 320 nM and 8.9 nM, respectively.

For `COc1ccccc1C(=O)N1CC2CCC1CN2Cc1c(-c2ccc(Cl)cc2)nc2ccccn12` (single isomer, unassigned) [Example 44], the half-maximal inhibitory concentration (IC50) worked out at 130 nM in experiment [1] and 3.3 nM in experiment [2].

As to `COc1ccc(F)cc1C(=O)N1CC2CCC1CN2Cc1c(-c2ccc(Cl)cc2)nc2ccccn12` (single isomer, unassigned) [Example 45], the figures for the concentration for half-maximal inhibition (IC50) in experiment [1] and in experiment [2] were 340 nM and 13 nM, respectively.

Consider `Cc1ccccc1C(=O)N1CC2CCC1CN2Cc1c(-c2ccc(Cl)cc2)nc2ccccn12` (single isomer, unassigned) [Example 46], for which the IC50 in experiment [1] came out at 73 nM; in experiment [2] it was 5 nM.

As to `Cc1ccc(F)cc1C(=O)N1CC2CCC1CN2Cc1c(-c2ccc(Cl)cc2)nc2ccccn12` (single isomer, unassigned) [Example 47], the concentration for half-maximal inhibition (IC50) in experiment [1] came out at 70 nM; in experiment [2] it was 15 nM.

Regarding `O=C(c1cccc(OC(F)(F)F)c1)N1CC2CCC1CN2Cc1c(-c2ccc(Cl)cc2)nc2ccccn12` (single isomer, unassigned) [Example 48], the half-maximal inhibitory concentration (IC50) in experiment [1] stood at 390 nM; in experiment [2], 17 nM.

As for `O=C(c1cccc(Cl)c1)N1CC2CCC1CN2Cc1c(-c2ccc(Cl)cc2)nc2ccccn12` (single isomer, unassigned) [Example 49], the half-maximal inhibitory concentration (IC50) in experiment [1] was found to be 740 nM; in experiment [2] it was 12 nM.

Turning to `O=C(c1ccccn1)N1CC2CCC1CN2Cc1c(-c2ccc(Cl)cc2)nc2ccccn12` (single isomer, unassigned) [Example 51], the figures for the concentration for half-maximal inhibition (IC50) in experiment [1] and in experiment [2] were 290 nM and 34 nM, respectively.

In the case of `Cn1ccnc1C(=O)N1CC2CCC1CN2Cc1c(-c2ccc(Cl)cc2)nc2ccccn12` (single isomer, unassigned) [Example 52], the figures for the half-maximal inhibitory concentration (IC50) in experiment [1] and in experiment [2] were 170 nM and 10 nM, respectively.

Consider `Cc1cccc(C(=O)N2CC3CCC2CN3Cc2c(-c3ccc(Cl)cc3)nc3ccccn23)c1` (single isomer, unassigned) [Example 53], for which the IC50 in experiment [1] was determined as 140 nM; in experiment [2], 34 nM.

For the compound `CCOc1cccc(C(=O)N2CC3CCC2CN3Cc2c(-c3ccc(Cl)cc3)nc3ccccn23)c1` (single isomer, unassigned) [Example 54], the values for the IC50 in experiment [1] and in experiment [2] were 470 nM and 76 nM, respectively.

Consider `O=C(c1ccncc1)N1CC2CCC1CN2Cc1c(-c2ccc(Cl)cc2)nc2ccccn12` (single isomer, unassigned) [Example 55], for which the values for the half-inhibitory concentration (IC50) in experiment [1] and in experiment [2] were 2000 nM and 320 nM, respectively.

With `CC(C)c1ccc(-c2nc3ccccn3c2CN2CC3CCC2CN3C(=O)c2ccccc2F)cc1` (single isomer, unassigned) [Example 57], the half-maximal inhibitory concentration (IC50) in experiment [1] was 1400 nM; in experiment [2] it was 240 nM.

Regarding `COc1cccc(C(=O)N2CC3CCC2CN3Cc2c(-c3ccc(C(C)C)cc3)nc3ccccn23)n1` (single isomer, unassigned) [Example 60], the IC50 in experiment [2] was found to be 610 nM.

`COc1cccc(C(=O)N2CC3CCC2CN3Cc2c(-c3ccc(C(C)C)cc3)nc3ccccn23)n1` (single isomer, unassigned) [Example 61]: the results for the IC50 in experiment [1] and in experiment [2] were 680 nM and 87 nM, respectively.

With `CC(C)c1ccc(-c2nc3ccccn3c2CN2CC3CCC2CN3C(=O)C2CCCC2)cc1` (single isomer, unassigned) [Example 62], the values for the IC50 in experiment [1] and in experiment [2] were 2800 nM and 760 nM, respectively.

Turning to `CC(C)c1ccc(-c2nc3ccccn3c2CN2CC3CCC2CN3C(=O)C2CCCC2)cc1` (single isomer, unassigned) [Example 63], the values for the 50% inhibitory concentration (IC50) in experiment [1] and in experiment [2] were 490 nM and 140 nM, respectively.

For the compound `COc1ccc(F)c(C(=O)N2CC3CCC2CN3Cc2c(-c3ccc(Cl)cn3)nc3ccccn23)n1` (single isomer, unassigned) [Example 66], the figures for the half-inhibitory concentration (IC50) in experiment [1] and in experiment [2] were 1100 nM and 110 nM, respectively.

As to `COc1ccc(Cl)c(C(=O)N2CC3CCC2CN3Cc2c(-c3ccc(Cl)cn3)nc3ccccn23)n1` (single isomer, unassigned) [Example 67], the half-maximal inhibitory concentration (IC50) in experiment [1] came out at 990 nM; in experiment [2], 220 nM.

Turning to `Cc1cccc(Cl)c1NC(=O)N1C2CCC1CN(Cc1c(-c3ccc(Cl)cc3)nc3ccccn13)C2` [Example 165, N-(2-Chloro-6-methylphenyl)-3-{[2-(4-chlorophenyl)imidazo[1,2-a]pyridin-3-yl]methyl}-3,8-diazabicyclo[3.2.1]octane-8-carboxamide], the IC50 in experiment [1] was found to be 25 nM.

Consider `CCOC(=O)N1C2CCC1CN(Cc1c(-c3ccc(Cl)cc3)nc3ccccn13)C2` [Example 185, Ethyl 3-{[2-(4-chlorophenyl)imidazo[1,2-a]pyridin-3-yl]methyl}-3,8-diazabicyclo[3.2.1]octane-8-carboxylate], for which the 50% inhibitory concentration (IC50) in experiment [1] worked out at 120 nM.
